According to patent US20100003301A1, “Bone Defect Filler, Release-Controlled Carrier, And Their Production Methods” (The University of Tokyo, priority 2006, published 2010):

Experiment: Viscosity measurement of blocking agents (LVDV digital viscometer)
Type: physicochemical
Settings: viscosity could not be measured
Protocol: A Z printer 406 made by Z corporation was used to produce a bone filling material. “LVDV” which is a digital viscometer made by Brookfield Co., Ltd. was used to measure viscosity. A UL (ultra low viscosity) adapter was used when the viscosity was measured. Bending strength was measured by a rheometer made by Sun Science Co., Ltd.
Viscosity of blocking agents were measured by “LVDV” which is a digital viscometer made by Brookfield Co., Ltd. The results are shown in Table 2.

dissolution in water: cannot be dissolved in water
SMILES: NC(=O)CC[C@H](N)C(=O)O [L-glutamine]
